Data published in paper doi:10.1101/2020.10.06.328336v1 (biorxiv, 2020).

Assays:
[1] = molecular target: T1, SARS-CoV-2 RdRp complex (nsp12-nsp7-nsp8) (Severe acute respiratory syndrome coronavirus 2, UniProt P0DTD1); test: biochemical
[2] = molecular target: T1, SARS-CoV-2 RdRp complex (nsp12-nsp7-nsp8); test: […]; type: biochemical

| Structure (SMILES) | IC50 [1] | IC50 [2] |
| --- | --- | --- |
| O=C(Nc1cccc(C(=O)Nc2cc(C(=O)Nc3ccc(S(=O)(=O)O)c4cc(S(=O)(=O)O)cc(S(=O)(=O)O)c34)ccc2F)c1)Nc1cccc(C(=O)Nc2cc(C(=O)Nc3ccc(S(=O)(=O)O)c4cc(S(=O)(=O)O)cc(S(=O)(=O)O)c34)ccc2F)c1 [NF157] | 50 nM |  |
| Cc1ccc(C(=O)Nc2ccc(S(=O)(=O)O)c3cc(S(=O)(=O)O)cc(S(=O)(=O)O)c23)cc1NC(=O)c1cccc(NC(=O)Nc2cccc(C(=O)Nc3cc(C(=O)Nc4ccc(S(=O)(=O)O)c5cc(S(=O)(=O)O)cc(S(=O)(=O)O)c45)ccc3C)c2)c1 [suramin] |  | 260 nM |
| O=C(Nc1cc(C(=O)Nc2ccc(S(=O)(=O)O)cc2S(=O)(=O)O)cc(C(=O)Nc2ccc(S(=O)(=O)O)cc2S(=O)(=O)O)c1)Nc1cc(C(=O)Nc2ccc(S(=O)(=O)O)cc2S(=O)(=O)O)cc(C(=O)Nc2ccc(S(=O)(=O)O)cc2S(=O)(=O)O)c1 [NF449] | 50 nM |  |
| O=C(Nc1ccc(C(=O)Nc2ccc(C(=O)Nc3ccc(S(=O)(=O)O)c4cc(S(=O)(=O)O)cc(S(=O)(=O)O)c34)cc2)cc1)Nc1ccc(C(=O)Nc2ccc(C(=O)Nc3ccc(S(=O)(=O)O)c4cc(S(=O)(=O)O)cc(S(=O)(=O)O)c34)cc2)cc1 [NF279] | 50 nM |  |
| O=C(Nc1cc(C(=O)Nc2ccc(S(=O)(=O)O)cc2)cc(C(=O)Nc2ccc(S(=O)(=O)O)cc2)c1)Nc1cc(C(=O)Nc2ccc(S(=O)(=O)O)cc2)cc(C(=O)Nc2ccc(S(=O)(=O)O)cc2)c1 [NF110] | 580 ± 40 nM |  |
